Experimental data taken from US5925618A, “Peptides useful as somatostatin antagonists” (American Cyanamid Company, priority 1998, dated 1999).
Square brackets hold non-standard residues; d marks the D form. Peptide text beside a SMILES is read from it.

Molecular target: T1, rat SSTR2 (Rattus norvegicus, UniProt P30680)
T1 construct: expressed in transfected cells; host or cells: GH4C1 rat pituitary tumor cells
Test: cAMP accumulation in forskolin-stimulated GH4 C1/SSTR2 cells
Assay type: cell-based
Details: for Emax: GH4-C1, test peptide 2 μM, read-out: cAMP Assay, Intrinsic activity (percent reversal of SSTR2 activation by SRIF or MK678)
Excerpt: A primary effect of SRIF upon mammalian cells is the reduction of cyclic adenosine 3',5'-monophosphate(cAMP) levels, via inhibition of adenylyl cyclase. This is the basis of a common assay for SRIF agonists and antagonists, whereby SRIF agonists reduce artificially stimulated cAMP levels, and SRIF antagonists reverse the effect of SRIF. The rat pituitary tumor cell line GH4 C1 predominantly expresses SSTR2, and responds to SRIF and to forskolin, a stimulator of adenylate cyclase (see C. M. Eppler, et al., J. Biol. Chem., 267, 15603-15612, 1992, incorporated herein by reference). A highly sensitive assay for SRIF agonists and antagonists results from additionally transfecting GH4 C1 cells with the cloned rat SSTR2, (see L. A. Price, et al., Molecular and Cellular Biology, 15, 6188-6195, 1995, incorporated herein by reference). This increases the response to SRIF and provides a greater dynamic range for the measurement of SRIF antagonist activity.
Stimulation of cells. GH4 C1 /SSTR2 cells, grown in DMEM with 10% bovine serum, are released from a tissue culture dish by incubation for several minutes at 37° C. with PBS containing 0.5 mM EDTA. Cells are washed in induction buffer (PBS containing 100 μM IBMX (an inhibitor of cAMP breakdown) and 2 mM CaCl2) at room temperature, and resuspended at 2×10^6 /mL in induction buffer. Into each well of a 96-well tray are added 50 μL of a 2× concentration of stimulants in induction buffer. These include (at final concentration) 1.25 μM forskolin, 100 nM SRIF or 10 nM of the SSTR2-selective agonist MK678 and test peptides at various concentrations. To initiate stimulation of the cells, 50 μL (100,000) cells are added to each well, mixed by shaking 10 seconds on a plate shaker and placed at 37° C. for 15 minutes. Stimulation is arrested and cells are lysed by adding 15 μL 0.33N HCl to each well and incubating the plate for 30 minutes at 37° C. Samples are neutralized by addition of 15 μL 0.25N NaOH/50 mM Hepes pH 7.4. Baseline cAMP levels are determined in samples with no added forskolin or SRIF, and each treatment is performed in triplicate.
cAMP assay. To measure accumulated cAMP in the samples, a radioimmunoassay is employed. The scintillation proximity assay (SPA, Amersham, Arlington Heights, Ill.) allows the rapid measurement of ^125 I cAMP bound to a specific antibody without separating bound radioligand from free radioligand. Each of the following reagents (50 μL) are added per well in a 96-well tray: supernatants from the cell stimulation; ^125 I cAMP; SPA beads conjugated to monkey anti-rabbit IgG antibodies; and rabbit anti-cAMP antibodies. For the standard curve, known amounts of cAMP (0.2-12.8 pmol) are added in place of cell supernatants. The 96-well tray is sealed, shaken at room temperature overnight and measured for bound radioligand in a MicroBeta liquid scintillation counter (Wallac, Gaithersburg, Md.). The standard curve is determined for each experiment by performing a nonlinear regression (exponential decay) analysis of cpm measured for the cAMP standards vs. their log concentrations, and test sample values are determined by using Prism software (Graphpad Software Inc., San Diego, Calif.) and are shown in Table II and FIG. 1. FIG. I illustrates the antagonist activity of Peptide 1.
The intrinsic activity of an SRIF antagonist is the percent reversal of the SSTR2, activation by SRIF or MK678, wherein 0% is defined by cAMP levels in samples treated with forskolin plus SRIF or MK678 and 100% is the cAMP level measured after treatment with forskolin alone. Therefore, increased intrinsic activity of a test compound indicates increased antagonist activity of said test compound.
FIG. […]
An inverse agonist is a compound that is not only a pure antagonist (i.e. lacking agonist activity), but also blocks the constitutive activity of an unoccupied receptor. One indication of inverse agonist activity is the ability of a SRIF antagonist to increase cAMP levels in the absence of added SRIF. […]

[1] = forskolin stimulated cells, agonist alone or with 10 μM peptide 1

T1 sequence (P30680 whole entry): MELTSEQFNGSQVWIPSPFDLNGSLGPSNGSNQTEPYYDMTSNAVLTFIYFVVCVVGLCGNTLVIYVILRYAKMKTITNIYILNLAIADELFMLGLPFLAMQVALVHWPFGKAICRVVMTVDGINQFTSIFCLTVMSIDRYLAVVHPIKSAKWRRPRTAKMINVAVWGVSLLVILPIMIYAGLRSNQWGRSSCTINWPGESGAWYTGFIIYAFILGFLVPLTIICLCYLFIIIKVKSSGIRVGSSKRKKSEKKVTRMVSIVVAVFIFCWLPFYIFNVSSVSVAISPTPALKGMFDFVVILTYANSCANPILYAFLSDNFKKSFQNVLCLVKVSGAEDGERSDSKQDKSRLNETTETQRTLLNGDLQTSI

| Emax [%] | SMILES | further results |
| --- | --- | --- |
| 29.1 | CC[C@@H](C)[C@@H](NC(=O)[C@@H](Cc1ccccc1)NC(=O)[C@@H](Cc1c[nH]cn1)NC(C)=O)C(=O)N[C@H](CCCNC(=N)N)C(=O)N[C@H](Cc1c[nH]c2ccccc12)C(N)=O [Peptide 12, h-f-i-r-w] (Ac-[dH][dF][dI][dR][dW]-NH2) | – |
| 26.2 | CC[C@@H](C)[C@@H](NC(=O)[C@@H](Cc1ccccc1)NC(=O)[C@H](Cc1c[nH]cn1)NC(C)=O)C(=O)N[C@H](CCCNC(=N)N)C(=O)N[C@H](Cc1c[nH]c2ccccc12)C(=O)N[C@H](Cc1ccccc1)C(N)=O [Peptide 13, H-f-i-r-w-f] (Ac-H[dF][dI][dR][dW][dF]-NH2) | – |
| 29.6 | CC[C@@H](C)[C@@H](NC(=O)[C@H](Cc1ccccc1)NC(=O)[C@@H](Cc1c[nH]cn1)NC(C)=O)C(=O)N[C@H](CCCNC(=N)N)C(=O)N[C@H](Cc1c[nH]c2ccccc12)C(=O)N[C@H](Cc1ccccc1)C(N)=O [Peptide 14, h-F-i-r-w-f] (Ac-[dH]F[dI][dR][dW][dF]-NH2) | – |
| 9.71 | CC[C@H](C)[C@H](NC(=O)[C@@H](Cc1ccccc1)NC(=O)[C@@H](Cc1c[nH]cn1)NC(C)=O)C(=O)N[C@H](CCCNC(=N)N)C(=O)N[C@H](Cc1c[nH]c2ccccc12)C(=O)N[C@H](Cc1ccccc1)C(N)=O [Peptide 15, h-f-I-r-w-f] (Ac-[dH][dF]I[dR][dW][dF]-NH2) | – |
| 43.6 | CC[C@@H](C)[C@@H](NC(=O)[C@@H](Cc1ccccc1)NC(=O)[C@@H](Cc1c[nH]cn1)NC(C)=O)C(=O)N[C@@H](CCCNC(=N)N)C(=O)N[C@H](Cc1c[nH]c2ccccc12)C(=O)N[C@H](Cc1ccccc1)C(N)=O [Peptide 16, h-f-i-R-w-f] (Ac-[dH][dF][dI]R[dW][dF]-NH2) | – |
| 50.2 | CC[C@@H](C)[C@@H](NC(=O)[C@@H](Cc1ccccc1)NC(=O)[C@@H](Cc1c[nH]cn1)NC(C)=O)C(=O)N[C@H](CCCNC(=N)N)C(=O)N[C@@H](Cc1c[nH]c2ccccc12)C(=O)N[C@H](Cc1ccccc1)C(N)=O [Peptide 17, h-f-i-r-W-f] (Ac-[dH][dF][dI][dR]W[dF]-NH2) | – |
| 46.7 | CC[C@@H](C)[C@@H](NC(=O)[C@@H](Cc1ccccc1)NC(=O)[C@@H](Cc1c[nH]cn1)NC(C)=O)C(=O)N[C@H](CCCNC(=N)N)C(=O)N[C@H](Cc1c[nH]c2ccccc12)C(=O)N[C@@H](Cc1ccccc1)C(N)=O [Peptide 18, h-f-i-r-w-F] (Ac-[dH][dF][dI][dR][dW]F-NH2) | – |
| 33.3 | CC[C@@H](C)[C@@H](NC(=O)[C@@H](Cc1ccc(O)cc1)NC(=O)[C@@H](CCCCN)NC(C)=O)C(=O)N[C@H](CCCNC(=N)N)C(=O)N[C@H](Cc1c[nH]c2ccccc12)C(=O)N[C@H](Cc1ccccc1)C(N)=O [Peptide 19, k-y-i-r-w-f] (Ac-[dK][dY][dI][dR][dW][dF]-NH2) | – |
| 56.5 | CC[C@@H](C)[C@@H](NC(=O)[C@@H](Cc1ccc(O)cc1)NC(=O)[C@@H](Cc1c[nH]cn1)NC(C)=O)C(=O)N[C@H](CCCNC(=N)N)C(=O)N[C@H](Cc1c[nH]c2ccccc12)C(=O)N[C@H](Cc1ccccc1)C(N)=O [Peptide 20, h-y-i-r-w-f] (Ac-[dH][dY][dI][dR][dW][dF]-NH2) | – |
| 54.7 | CC[C@@H](C)[C@@H](NC(=O)[C@@H](Cc1c[nH]c2ccccc12)NC(=O)[C@@H](Cc1c[nH]cn1)NC(C)=O)C(=O)N[C@H](CCCNC(=N)N)C(=O)N[C@H](Cc1c[nH]c2ccccc12)C(=O)N[C@H](Cc1ccccc1)C(N)=O [Peptide 21, h-w-i-r-w-f] (Ac-[dH][dW][dI][dR][dW][dF]-NH2) | – |

Further lines, the molecule ahead of its results:

| SMILES | Emax [%] | further results |
| --- | --- | --- |
| C=C[C@@]1(C)CC(=O)[C@]2(O)[C@@]3(C)[C@@H](O)CCC(C)(C)[C@@H]3[C@H](O)[C@H](OC(C)=O)[C@@]2(C)O1 [Forskolin, forskolin, reference compound] | – | cAMP (Forskolin 1.25 μM alone): 3.04 pM per 4 × 10^4 cells |
| CC(C)[C@@H]1NC(=O)[C@H](CCCCN)NC(=O)[C@@H](Cc2c[nH]c3ccccc23)NC(=O)[C@H](Cc2ccc(O)cc2)NC(=O)[C@H](C)N(C)C(=O)[C@H](Cc2ccccc2)NC1=O [MK678, reference compound] | – | cAMP (Forskolin 1.25 μM + MK 678 10 nM, no peptide 1): 0.91 pM per 4 × 10^4 cells; Maximum (cAMP level of agonist dose response) [1]: 6.431; Minimum (cAMP level of agonist dose response) [1]: 2.673 |
| CC[C@@H](C)[C@@H](NC(=O)[C@@H](Cc1ccccc1)NC(=O)[C@@H](C)NC(C)=O)C(=O)N[C@H](CCCNC(=N)N)C(=O)N[C@H](Cc1c[nH]c2ccccc12)C(=O)N[C@H](Cc1ccccc1)C(N)=O [Peptide 2, a-f-i-r-w-f] (Ac-[dA][dF][dI][dR][dW][dF]-NH2) | 13 | – |
| CC[C@@H](C)[C@@H](NC(=O)[C@@H](C)NC(=O)[C@@H](Cc1c[nH]cn1)NC(C)=O)C(=O)N[C@H](CCCNC(=N)N)C(=O)N[C@H](Cc1c[nH]c2ccccc12)C(=O)N[C@H](Cc1ccccc1)C(N)=O [Peptide 3, h-a-i-r-w-f] (Ac-[dH][dA][dI][dR][dW][dF]-NH2) | 9.33 | – |
| CC(=O)N[C@H](Cc1c[nH]cn1)C(=O)N[C@H](Cc1ccccc1)C(=O)N[C@H](C)C(=O)N[C@H](CCCNC(=N)N)C(=O)N[C@H](Cc1c[nH]c2ccccc12)C(=O)N[C@H](Cc1ccccc1)C(N)=O [Peptide 4, h-f-a-r-w-f] (Ac-[dH][dF][dA][dR][dW][dF]-NH2) | 41.8 | – |
| CC[C@@H](C)[C@@H](NC(=O)[C@@H](Cc1ccccc1)NC(=O)[C@@H](Cc1c[nH]cn1)NC(C)=O)C(=O)N[C@H](C)C(=O)N[C@H](Cc1c[nH]c2ccccc12)C(=O)N[C@H](Cc1ccccc1)C(N)=O [Peptide 5, h-f-i-a-w-f] (Ac-[dH][dF][dI][dA][dW][dF]-NH2) | 44.1 | – |
| CC[C@@H](C)[C@@H](NC(=O)[C@@H](Cc1ccccc1)NC(=O)[C@@H](Cc1c[nH]cn1)NC(C)=O)C(=O)N[C@H](CCCNC(=N)N)C(=O)N[C@H](C)C(=O)N[C@H](Cc1ccccc1)C(N)=O [Peptide 6, h-f-i-r-a-f] (Ac-[dH][dF][dI][dR][dA][dF]-NH2) | 13.4 | – |
| CC[C@@H](C)[C@@H](NC(=O)[C@@H](Cc1ccccc1)NC(C)=O)C(=O)N[C@H](CCCNC(=N)N)C(=O)N[C@H](Cc1c[nH]c2ccccc12)C(=O)N[C@H](Cc1ccccc1)C(N)=O [Peptide 7, f-i-r-w-f] (Ac-[dF][dI][dR][dW][dF]-NH2) | -7.2 | – |
| CC[C@@H](C)[C@@H](NC(=O)[C@@H](Cc1c[nH]cn1)NC(C)=O)C(=O)N[C@H](CCCNC(=N)N)C(=O)N[C@H](Cc1c[nH]c2ccccc12)C(=O)N[C@H](Cc1ccccc1)C(N)=O [Peptide 8, h-i-r-w-f] (Ac-[dH][dI][dR][dW][dF]-NH2) | 2.76 | – |
| CC(=O)N[C@H](Cc1c[nH]cn1)C(=O)N[C@H](Cc1ccccc1)C(=O)N[C@H](CCCNC(=N)N)C(=O)N[C@H](Cc1c[nH]c2ccccc12)C(=O)N[C@H](Cc1ccccc1)C(N)=O [Peptide 9, h-f-r-w-f] (Ac-[dH][dF][dR][dW][dF]-NH2) | 6.36 | – |
| CC[C@@H](C)[C@@H](NC(=O)[C@@H](Cc1ccccc1)NC(=O)[C@@H](Cc1c[nH]cn1)NC(C)=O)C(=O)N[C@H](Cc1c[nH]c2ccccc12)C(=O)N[C@H](Cc1ccccc1)C(N)=O [Peptide 10, h-f-i-w-f] (Ac-[dH][dF][dI][dW][dF]-NH2) | 25.3 | – |
| CC[C@@H](C)[C@@H](NC(=O)[C@@H](Cc1ccccc1)NC(=O)[C@@H](Cc1c[nH]cn1)NC(C)=O)C(=O)N[C@H](CCCNC(=N)N)C(=O)N[C@H](Cc1ccccc1)C(N)=O [Peptide 11, h-f-i-r-f] (Ac-[dH][dF][dI][dR][dF]-NH2) | 12.1 | – |
